From PubChem BioAssay (NCI)
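Five concentrations, 48 hours, 96-well plates. At the TGI there is no net growth.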

Columns and labels:
Test in all cases: inhibition of tumour cell growth, NCI panel, 48 h
A498 renal = test system: A498 renal
A549 NSCLC = test system: A549 NSCLC
EKVX NSCLC = test system: EKVX NSCLC
HOP-92 NSCLC = test system: HOP-92 NSCLC
HS 578T breast = test system: HS 578T breast
LOX IMVI melanoma = test system: LOX IMVI melanoma
M14 melanoma = test system: M14 melanoma
MDA-N = test system: MDA-N
NCI-H522 lung = test system: NCI-H522 lung
RXF 393 renal = test system: RXF 393 renal
SK-MEL-5 melanoma = test system: SK-MEL-5 melanoma
SN12C renal = test system: SN12C renal
T-47D breast = test system: T-47D breast
U251 CNS = test system: U251 CNS
UACC-257 melanoma = test system: UACC-257 melanoma
UACC-62 melanoma = test system: UACC-62 melanoma
SR leukemia = test system: SR leukemia

Structure (SMILES) | TGI (A498 renal) | TGI (A549 NSCLC) | TGI (EKVX NSCLC) | TGI (HOP-92 NSCLC) | TGI (HS 578T breast) | TGI (LOX IMVI melanoma) | TGI (M14 melanoma) | TGI (MDA-N) | TGI (NCI-H522 lung) | TGI (RXF 393 renal) | TGI (SK-MEL-5 melanoma) | TGI (SN12C renal) | TGI (T-47D breast) | TGI (U251 CNS) | TGI (UACC-257 melanoma) | TGI (UACC-62 melanoma) | TGI (SR leukemia)
C=C(COCO)C(C)=O | 49 µM | > 64.7 µM | 46.9 µM | 48.9 µM | 62.7 µM | 31.7 µM | 26.8 µM | 33.5 µM | 3.75 µM | 29.4 µM | 31.5 µM | 33 µM | 36.7 µM | 47.2 µM | 31.1 µM | 32.3 µM | 
COc1ccccc1-n1nnc2c(N)nc(N)nc21 | > 100 µM | > 100 µM | > 100 µM | > 100 µM | > 100 µM | > 100 µM | > 100 µM | > 100 µM | > 100 µM |  | > 100 µM | > 100 µM | > 100 µM | > 100 µM | > 100 µM | > 100 µM | > 100 µM
O=C(Sc1c(-c2ccccc2)c(=O)n(-c2ccccc2)c(=S)n1-c1ccccc1)c1ccccc1 |  | > 100 µM | > 100 µM | 71.9 µM | > 100 µM | > 100 µM | > 100 µM | > 100 µM | > 100 µM |  | > 100 µM | > 100 µM | > 100 µM | > 100 µM | > 100 µM | > 100 µM | > 100 µM
CCc1n[nH]c(=O)n1CC | > 100 µM | > 100 µM | > 100 µM | > 100 µM | > 100 µM | > 100 µM |  | > 100 µM | > 100 µM |  | > 100 µM | > 100 µM | > 100 µM | > 100 µM | > 100 µM | > 100 µM | > 100 µM
CCCCN=NNc1cn(C2OC(CO)C(O)C2O)c(=O)[nH]c1=O (centres undefined) | > 100 µM | > 100 µM | > 100 µM |  | > 100 µM | > 100 µM | > 100 µM | > 100 µM | > 100 µM | > 100 µM | > 100 µM | > 100 µM | > 100 µM |  | > 100 µM | > 100 µM | > 100 µM
O=C1C=C(c2ccccc2)OC1C1Sc2ccccc2NC1=O (centres undefined) | > 31.5 µM | > 44.7 µM | > 100 µM | > 87 µM | > 100 µM | > 64.6 µM | 35.6 µM | > 100 µM | 33.8 µM | > 94.4 µM | 38.2 µM | 68.8 µM | > 100 µM | > 43.3 µM | > 24.4 µM | > 49.3 µM | 
Clc1sc(Cl)c2c1[C@H](Cl)C[C@@H]2Cl | > 100 µM | 86.2 µM | > 100 µM | 34.4 µM | 44.1 µM | 25.2 µM | 37.4 µM | 64.5 µM | 3.31 µM |  | > 100 µM | 50.6 µM | 72.9 µM | 48.2 µM | 92.9 µM | 43.7 µM | > 100 µM
CCO/C(O)=C(/C(=N)N1CCOCC1)C(=O)NC(C)C | > 100 µM | > 100 µM | > 100 µM | > 100 µM | > 100 µM | > 100 µM | > 100 µM | > 100 µM | > 100 µM | > 100 µM |  | > 100 µM | > 100 µM | > 100 µM | > 100 µM | > 100 µM | 
CCCCC(=O)/C=c1/cc(C)[nH]c2cccc3cnn1c32 | > 100 µM | > 100 µM | > 100 µM | > 100 µM | > 100 µM | > 100 µM | > 100 µM | > 100 µM | > 100 µM |  | > 100 µM | > 100 µM | > 100 µM | > 100 µM | > 100 µM | > 100 µM | > 100 µM
CC(=O)NS(=O)(=O)c1ccc(NCc2cccc3c(=O)c4ccc(Cl)cc4oc23)cc1 | > 100 µM | > 100 µM | > 100 µM | 69.7 µM | 97.7 µM | > 100 µM | > 100 µM | > 100 µM | > 83.8 µM | 78.9 µM | > 100 µM | > 100 µM | > 100 µM | > 100 µM | > 100 µM | > 100 µM | 
Cc1[nH]c(C)c(CN(C)C)c1CN(C)C | > 100 µM | > 100 µM | > 100 µM | > 100 µM | > 100 µM | > 100 µM | > 100 µM | > 100 µM | > 100 µM | > 100 µM | > 100 µM | > 100 µM | > 100 µM | > 100 µM | > 100 µM | > 100 µM | 
CCOC(=O)[C@@H]1[C@@H](c2ccccc2)N(C)O[C@@]1(c1ccccc1)C(F)(F)F | > 100 µM | > 100 µM | > 100 µM | > 100 µM | > 100 µM | > 100 µM | > 100 µM | > 100 µM | > 100 µM | > 100 µM | 72.3 µM | > 100 µM | > 100 µM | > 100 µM | > 100 µM | > 100 µM | 
C=C1CN=C(Nc2ccc(Cl)cc2)S1 | > 100 µM | > 100 µM | > 100 µM | > 100 µM | > 100 µM | > 100 µM | > 100 µM | > 100 µM |  |  | > 100 µM | > 100 µM | > 100 µM | > 100 µM | > 100 µM |  | > 100 µM
CC1(C)CC[C@]2(C(=O)O)CC[C@]3(C)C(=CCC4=C5C[C@H](O)[C@H](O)[C@@](C)(CO)[C@@]5(C)CC[C@]43C)[C@@H]2C1 | > 100 µM | > 100 µM | > 100 µM | > 100 µM | > 100 µM | > 100 µM | > 100 µM | > 100 µM | > 100 µM |  | 62.8 µM | > 100 µM | 89.5 µM | > 100 µM | > 100 µM | > 100 µM | > 100 µM
COC(=O)c1cc(CC2Cc3cc4c(cc3C2=O)CCC4)cc2c1CCC2 (centres undefined) | > 100 µM | > 100 µM | > 100 µM |  | > 100 µM | > 100 µM | > 100 µM | > 100 µM | > 100 µM |  |  | > 100 µM | > 100 µM | > 100 µM | > 100 µM | > 100 µM | > 100 µM
COc1ccc(Cc2cc(Cc3ccc(OC)cc3)cc(Cc3ccc(OC)cc3)c2)cc1 | > 100 µM | > 100 µM | > 100 µM | > 100 µM | > 100 µM | > 100 µM | > 100 µM | > 100 µM | > 100 µM |  |  | > 100 µM | > 100 µM | > 100 µM | > 100 µM | > 100 µM | > 100 µM
C=C(C)C1CC[C@@](C)(O)[C@H](C#N)C1 (some centres undefined) | > 100 µM | > 100 µM | > 100 µM |  | > 100 µM | > 100 µM | > 100 µM | > 100 µM | > 100 µM | > 100 µM | > 100 µM | > 100 µM | > 100 µM | > 100 µM | > 100 µM | > 100 µM | > 100 µM
N=c1oc2ccccc2cc1C(=O)Nc1cccc2ccccc12 | > 100 µM | > 100 µM |  | > 100 µM | > 100 µM | > 100 µM | > 100 µM | > 100 µM |  | > 100 µM | > 100 µM | > 100 µM | > 100 µM | > 100 µM | > 100 µM | > 100 µM | > 100 µM
O=C1Nc2ccc(Br)cc2/C1=N/S(=O)(=O)O | > 100 µM | 78.9 µM | 85.7 µM | > 100 µM | > 100 µM | 28 µM | > 100 µM | 26.6 µM | > 100 µM | > 100 µM | 29.6 µM | 37 µM | > 100 µM | > 100 µM | 31.4 µM | 40.3 µM | 
Cc1c(C(=O)c2ccccc2)[n+](=O)c2cc(Cl)c(Cl)cc2n1[O-] | 33.8 µM | 27.5 µM | 26.3 µM | 15.2 µM | 31.2 µM | 15.8 µM | 7.7 µM | 25.9 µM |  | 19.2 µM | 28.6 µM | 30.5 µM | 14 µM | 29.9 µM | 16.5 µM | 25.1 µM | 3.32 µM
CSc1c(C#N)c(=O)n(N)c2c1c(C)nn2-c1ccccc1 | 65.8 µM | 61.6 µM | 78 µM |  | > 100 µM | 52.6 µM | > 100 µM | > 100 µM | > 100 µM | 69.1 µM | 28.7 µM | > 100 µM | 81 µM | > 100 µM | 60.9 µM | 75.8 µM | 71.8 µM
COCn1cc(C2=C(C)C(=O)C(C)=C(C)C2=O)cn1 | > 100 µM | > 100 µM | 32.5 µM | 37.5 µM | > 100 µM |  | > 100 µM | > 100 µM |  | > 100 µM | > 100 µM | > 100 µM | 56.1 µM |  | > 100 µM | > 100 µM | 65.9 µM
CC1(C)Cc2c(sc3[nH]c(=S)[nH]c(=S)c23)CS1 | > 100 µM | > 100 µM |  | 50.4 µM | > 100 µM | > 100 µM | > 100 µM | > 100 µM |  | > 100 µM | > 100 µM | > 100 µM | 61.4 µM | > 100 µM | 73.8 µM | 67.4 µM | > 100 µM
S=C1NC2=C(CSC/C2=C\c2ccc(Cl)cc2)C(c2ccc(Cl)cc2)N1 (centres undefined) |  | > 100 µM | > 100 µM | 88.4 µM | > 100 µM | > 100 µM |  | > 100 µM | > 100 µM |  | 37.3 µM | > 100 µM | > 100 µM | > 100 µM | > 100 µM | > 100 µM | > 100 µM
